Values quoted from earlier work as cited in article PMC6780087 (Marine Drugs, 2019).

Key:
NaChBac [1] = conditions: ref [54]
NaChBac [2] = conditions: ref [55]

## CC(C)c1cccc(C(C)C)c1O [propofol]
NaChBac [1]
  effect on NaChBac: inhibits peak currents and promotes activation-linked inactivation in NaChBac
NaChBac [2]
  binding to NaChBac: binding to multiple channel sites
